Assay results: patent publication US20250186566A1, “CELL-BASED VACCINES” (Arkea Bio Corp., priority 2023, published 2025)
Where two headings read alike, the source gives them in different places. Each block holds one compound with its values, some of them ahead of it.

Columns and labels:
[1] = test system: cattle; conditions: cited from earlier work
[2] = test system: CH4 production; conditions: cited from earlier work
[3] = 3NOP pH and temperature stability (HPLC); format: physicochemical; conditions: 1-month, 4-30° C., pH 4-10
Experimental: 3NOP pH and Temperature Stability: Confirmed via HPLC over a 1-month time period at temperature between 4-30° C. and pH 4-10.

[4] = 3NOP volatility (mass loss open to air); format: physicochemical; conditions: 500 mg open to air, 18-24° C., 15-30% RH, 6 days
Experimental: 3NOP Volatility:500 mg of 3NOP in a 5 dram vial was left open to air at ˜18-24° C. at 15-30% RH over the course of 6 days. Average mass loss is ˜0.25% per day.

[5] = 3NOP to adsorbent ratio study; format: physicochemical; conditions: distilled water at 1% 3NOP loading, 24 hr
Experimental: Optimal loading of 3NOP onto adsorbents was determined by varying ratios of 3NOP to adsorbent. 3NOP and adsorbent were speed mixed at 2000 rpm for 1 min. at the following ratios by weight: 1:1.5, 1:2, 1:2.5. The adsorbed 3NOP powder mixture was then placed in distilled water at 1% 3NOP loading. The solution was allowed to equilibrate for 24 hr and then an aliquot was taken for HPLC to determine the reduction in 3NOP concentration.

[6] = test system: sheep; conditions: cited from earlier work
[7] = test system: Mbb. Ruminantium, Ms. Mazei, and Mm. mobile; conditions: cited from earlier work
[8] = Adsorbent study: binding affinity and adsorptive capacity for 3NOP (HPLC at 230 nm)
From the text: The solution was then placed in an ultrasonic bath for ˜4 hr and then allowed to equilibrate over 24 hr.

[9] = test system: goats; conditions: 10 g/day/goat; cited from earlier work
[10] = test system: rumen methanogens; conditions: cited from earlier work; for suppression of CH4: bacteriocins, in vitro
[11] = test system: rumen Methanobrevibacter; conditions: 5.6 μmol/L, in vitro; cited from earlier work
[12] = dairy cows, 40-80 mg/kg feed DM
[13] = 0.2 g of adsorbent in 10 mL of 1% 3NOP/H2O, after 24 hr, Control 8.258
[14] = beef cattle, fed at […] of DM intake

Compound: CC(CO)[N+](=O)[O-] (stereo not drawn) [2-nitropropanol]
lowering of CH4 production ([1]; steers): 37%

Compound: O=[N+]([O-])OCCCO [3-Nitrooxypropanol (NOP)]
maximum methane suppression amount ([2]; 0.08 mg/g dry matter (2019)): 0.08 mg/g dry matter; 44% | maximum methane suppression amount ([2]; 1.6 g, concentrate pellet): 23% | maximum methane suppression amount ([2]; 1.6 g, roughage): 28%

Compound: O=[N+]([O-])OCCCO [3NOP, 3-Nitrooxypropanol]
pH and temperature stability [3]: Confirmed | Average mass loss [4]: ~0.25 % per day | Average Integrated Area of 3NOP in solution ([5]; 3NOP:Adsorbent 1:1.5): 2566.4 | Average Integrated Area of 3NOP in solution ([5]; 3NOP:Adsorbent 1:2): 2566.4 | Average Integrated Area of 3NOP in solution ([5]; 3NOP:Adsorbent 1:2.5): 2566.4 | degree of CH4 suppression ([1]; added to the rumen through rumen cannula, 0.50 or 2.5 g per cow daily): 7-10% | decrease of CH4 yield ([1]; beef cattle, 2.0 g/day/cow): 59% | persistence of inhibition ([1]; beef cattle, 2.0 g/day/cow): up to 112 days | decrease of CH4 production [1, 12]: about 30% | persistence of decrease [1, 12]: up to 84 days | decrease of CH4 production ([6]; 0.5 g/day): 29%

Compound: N=C(N)NCCC[C@H](N)C(=O)O [Arginine]
Average Integrated Area of 3NOP in solution ([5]; 3NOP:Adsorbent 1:1.5): 2406.0 | Average Integrated Area of 3NOP in solution ([5]; 3NOP:Adsorbent 1:2): 2372.8 | Average Integrated Area of 3NOP in solution ([5]; 3NOP:Adsorbent 1:2.5): 2435.2

Compound: ClCBr [BCM, bromochloromethane]
toxicity / residues ([1]; steers fed grain-based diets): no signs of toxicity or residues in meat

Compound: O=S(=O)(O)CCCBr [BPS, 3-bromopropanesulfonate]
sensitivity of methanogens ([7]; up to 250 μmol/L in pure cultures): resistant

3NOP concentration [8, 13]: 7.202 mM
Compound: C[N+](C)(C)CC(=O)O [Betaine]

Compound: O=C([O-])CC(O)(CC(=O)[O-])C(=O)[O-].[Bi+3] [Bismuth Citrate]
3NOP concentration [8, 13]: 8.072 mM

Compound: O=S(=O)([O-])[O-].O=S(=O)([O-])[O-].O=S(=O)([O-])[O-].[Bi+3].[Bi+3] [Bismuth Sulfate]
3NOP concentration [8, 13]: 8.079 mM

Compound: O=C(O)/C=C/c1ccc(O)c(O)c1 [Caffeic acid]
maximum suppression methane amount ([2]; 12 mM): 12 mM, Caffeic acid; 37.58%;

Compound: O=S(=O)([O-])[O-].[Cu+2] [Copper Sulfate]
3NOP concentration [8, 13]: 7.814 mM

Compound: N[C@@H](CCC(=O)O)C(=O)O [Glutamic acid]
Average Integrated Area of 3NOP in solution ([5]; 3NOP:Adsorbent 1:1.5): 2445.9 | Average Integrated Area of 3NOP in solution ([5]; 3NOP:Adsorbent 1:2): 2452.5 | Average Integrated Area of 3NOP in solution ([5]; 3NOP:Adsorbent 1:2.5): 2446.3

Compound: NC(=O)CC[C@H](N)C(=O)O [Glutamine]
3NOP concentration [8, 13]: 7.588 mM

Compound: NCCCC[C@H](N)C(=O)O [Lysine]
Average Integrated Area of 3NOP in solution ([5]; 3NOP:Adsorbent 1:1.5): 2336.2 | Average Integrated Area of 3NOP in solution ([5]; 3NOP:Adsorbent 1:2): 2308.9 | Average Integrated Area of 3NOP in solution ([5]; 3NOP:Adsorbent 1:2.5): 2266.6 | 3NOP concentration [8]: 18.583 mM

Compound: O=C(O)CC(O)C(=O)O (stereo not drawn) [Malate]
decrease of CH4 production [1, 14]: 16% | reduction of CH4 per unit of DM intake [1, 14]: 9%

Compound: O=[N+]([O-])CCO [NEOH]
maximum methane suppression amount ([2]; 10 mmol/L): 10 mmol/L; 96.7% (NE), 96.7%

Compound: CC[N+](=O)[O-] [NE]
maximum methane suppression amount ([2]; 10 mmol/L): 10 mmol/L; 96.7% (NE), 96.7%

Compound: CC(CO)[N+](=O)[O-] (stereo not drawn) [NPOH]
maximum methane suppression amount ([2]; 10 mmol/L): (NEOH), 41.7% (NPOH)

Compound: O=[N+]([O-])O [Nitrate]
maximum methane suppression amount ([2]; 5 mM (Liu et al., 2017)): 5 mM; 43.26% Liu et al., 2017) | maximum methane suppression amount ([2]; 5 mmol/L (Wu et al., 2019)): 5 mmol/L: 32.92% | maximum methane suppression amount ([2]; 20 mg/g dry matter (Alvarez-Hess et al. 2019)): 20 mg/g dry matter: 21%

Compound: ClC(Cl)Cl [chloroform]
duration of inhibition of methanogenesis ([1]; drenching to cattle): up to 32 days

Compound: O=C(O)/C=C/C(=O)O [fumarate]
decrease of CH4 production [9]: 11.9% | decrease of CH4 production ([10]; 3.5 g/L, continuous fermenters with forages as a substrate): 38%

Compound: CC[C@H](C)C(=O)O[C@H]1C[C@@H](C)C=C2C=C[C@H](C)[C@H](CC[C@@H]3C[C@@H](O)CC(=O)O3)[C@H]21 [lovastatin]
reduction of CH4 production ([10]; Rusitec, 150 mg/L): approximately 42% | reduction of total CH4 production by rumen methanogens ([10]; extracted from fermented rice straw, 48 h in vitro incubation): ~28%

Compound: O=c1[nH]c(=O)c2nccnc2[nH]1 [lumazin, 2,4-pteridinedione]
CH4 production by pure methanogen cultures ([7]; dose-dependent from 0.06 to 0.24 mmol/L): significantly decreased

Compound: CC[C@H](C)C(=O)O[C@H]1CCC=C2C=C[C@H](C)[C@H](CC[C@@H]3C[C@@H](O)CC(=O)O3)[C@H]21 [mevastatin]
growth of three strains of rumen Methanobrevibacter [11]: inhibited the growth

Compound: CC[C@@]1([C@@H]2O[C@@H]([C@H]3O[C@@](O)(CO)[C@H](C)C[C@@H]3C)C[C@@H]2C)CC[C@H]([C@]2(C)CC[C@]3(C[C@H](O)[C@@H](C)[C@@H]([C@@H](C)[C@@H](OC)[C@H](C)C(=O)O)O3)O2)O1 [monensin]
CH4 production by tropical cattle ([1]; 60 mg/day/cow): did not lower CH4 production | CH4 suppression ([1]; 10-15 ppm): no CH4 suppression | lowering of CH4 production (g/kg DM intake) ([1]; fed at 24-35 mg/kg diet): up to 10% | decrease of CH4 production ([1]; tropical cattle, 250 mg/day/cow): about 30%

Compound: CC[N+](=O)[O-] [nitroethane]
decrease of CH4 production ([6]; orally 24 mg/kg body weight daily for 5 days): up to 45% | decrease of CH4 production ([6]; orally 72 mg/kg body weight daily for 5 days): ≤ 69%

Compound: O=C(O)/C=C/c1ccc(O)cc1 [p-coumaric acid]
maximum suppression methane amount ([2]; 12 mM): p-coumaric acid; 28.33%

Compound: C#CC(=O)O [propynoic acid]
lowering of CH4 production ([10]; 6 mmol/L): 67% | lowering of CH4 production ([10]; 12 mmol/L): 78%

Compound: Oc1ccc(C=Cc2cc(O)cc(O)c2)cc1 [resveratrol]
maximum suppression methane amount ([2]; 25 mg, high-concentrate diets): high-concentrate diets; 41% | maximum suppression methane amount ([2]; 25 mg, high-forage diets): 25 mg, high-forage diets; 60%;

Compound: Bovicin HC5
suppression of CH4 [10]: 50%

Compound: Cyclodextrin
3NOP concentration [8, 13]: 7.676 mM

Compound: Lactobacillus plantarum
maximum suppression methane amount ([2]; 5.3 lg cfu/g fresh weight, 72 h): Lactobacillus plantarum, 8.8 ml/g(72 h)

Compound: Nisin
suppression of CH4 [10]: up to 40%
